Calls of active or inactive are those of the source. The calls are words filed in the database; no cut-off is given here.
Legend:
[1] = Cell cycle arrest in human EC109 cells assessed as accumulation at S phase at 10 uM after 12 hrs by propidium iodide staining-based flow cytometric analysis (reference value: 33.29%); format: functional; settings: ECa-109
ECa-109 cell line [2] = assay: Induction of apoptosis in human EC109 cells assessed as damaged cells at 40 uM after 24 hrs by annexin V-FITC/propidium iodide staining-based flow cytometric analysis (reference value: 0.1%); format: functional
[3] = Cell cycle arrest in human EC109 cells assessed as accumulation at G2/M phase at 2.5 uM after 24 hrs by propidium iodide staining-based flow cytometric analysis (reference value: 6.31%); format: functional; settings: ECa-109
[4] = Cytotoxicity against human L02 cells assessed as growth inhibition after 72 hrs by MTT assay; format: cell-based; settings: L02, 72 h
ECa-109 cell line [5] = assay: Induction of apoptosis in human EC109 cells assessed as increase in early apoptotic cells after 12 to 24 hrs by annexin V-FITC/propidium iodide staining-based flow cytometric analysis; format: functional, cell-based
ECa-109 cell line [6] = assay: Induction of apoptosis in human EC109 cells assessed as activation of caspase-3/9 at 5 to 10 uM after 24 hrs by Western blot analysis; format: functional, cell-based
[7] = Cytotoxicity against human EC109 cells assessed as growth inhibition after 72 hrs by MTT assay; format: functional, cell-based; settings: ECa-109, 72 h
ECa-109 cell line [8] = assay: Induction of apoptosis in human EC109 cells assessed as live cells at 20 uM after 24 hrs by annexin V-FITC/propidium iodide staining-based flow cytometric analysis (reference value: 93.6%); format: functional
ECa-109 cell line [9] = assay: Induction of apoptosis in human EC109 cells assessed as nuclear condensation at 1.25 to 20 uM after 24 hrs by Hoechst 33258 staining-based fluorescence microscopic analysis; format: functional, cell-based
ECa-109 cell line [10] = assay: Induction of apoptosis in human EC109 cells assessed as live cells at 2.5 uM after 24 hrs by annexin V-FITC/propidium iodide staining-based flow cytometric analysis (reference value: 93.6%); format: functional
[11] = Cell cycle arrest in human EC109 cells assessed as accumulation at S phase at 10 uM after 24 hrs by propidium iodide staining-based flow cytometric analysis (reference value: 37.99%); format: functional; settings: ECa-109
ECa-109 cell line [12] = assay: Induction of apoptosis in human EC109 cells assessed as late apoptotic cells at 10 uM after 12 hrs by annexin V-FITC/propidium iodide staining-based flow cytometric analysis (reference value: 1.4%); format: functional
ECa-109 cell line [13] = assay: Induction of apoptosis in human EC109 cells assessed as increase in late apoptotic cells after 12 to 24 hrs by annexin V-FITC/propidium iodide staining-based flow cytometric analysis; format: functional, cell-based
ECa-109 cell line [14] = assay: Induction of apoptosis in human EC109 cells assessed as late apoptotic cells at 20 uM after 12 hrs by annexin V-FITC/propidium iodide staining-based flow cytometric analysis (reference value: 1.4%); format: functional
PC-3 = assay: Cytotoxicity against human PC3 cells assessed as growth inhibition after 72 hrs by MTT assay; format: functional, cell-based; settings: PC-3, 72 h
ECa-109 cell line [15] = assay: Induction of apoptosis in human EC109 cells assessed as early apoptotic cells at 20 uM after 12 hrs by annexin V-FITC/propidium iodide staining-based flow cytometric analysis (reference value: 6.1%); format: functional
[16] = Disruption of mitochondrial membrane potential in human EC109 cells at 10 uM after 24 hrs by JC1 staining-based flow cytometric analysis (reference value: 8.1%); format: functional, ECa-109
ECa-109 cell line [17] = assay: Induction of apoptosis in human EC109 cells assessed as late apoptotic cells at 20 uM after 24 hrs by annexin V-FITC/propidium iodide staining-based flow cytometric analysis (reference value: 2.5%); format: functional
ECa-109 cell line [18] = assay: Induction of apoptosis in human EC109 cells assessed as early apoptotic cells at 40 uM after 24 hrs by annexin V-FITC/propidium iodide staining-based flow cytometric analysis (reference value: 3.8%); format: functional
MGC-803 = assay: Cytotoxicity against human MGC803 cells assessed as growth inhibition after 72 hrs by MTT assay; format: functional, cell-based; settings: MGC-803, 72 h
ECa-109 cell line [19] = assay: Induction of apoptosis in human EC109 cells assessed as live cells at 5 uM after 12 hrs by annexin V-FITC/propidium iodide staining-based flow cytometric analysis (reference value: 92.1%); format: functional
SMMC-7721 = assay: Cytotoxicity against human SMMC7721 cells assessed as growth inhibition after 72 hrs by MTT assay; format: functional, cell-based; settings: SMMC-7721, 72 h
[20] = Cell cycle arrest in human EC109 cells assessed as accumulation at G2/M phase at 10 uM after 24 hrs by propidium iodide staining-based flow cytometric analysis (reference value: 6.31%); format: functional; settings: ECa-109
ECa-109 cell line [21] = assay: Induction of apoptosis in human EC109 cells assessed as change in cellular morphology at 1.25 to 20 uM after 24 hrs by inverted microscopic analysis; format: functional, cell-based
[22] = Cell cycle arrest in human EC109 cells assessed as accumulation at S phase at 2.5 uM after 24 hrs by propidium iodide staining-based flow cytometric analysis (reference value: 37.99%); format: functional; settings: ECa-109
ECa-109 cell line [23] = assay: Induction of apoptosis in human EC109 cells assessed as late apoptotic cells at 5 uM after 12 hrs by annexin V-FITC/propidium iodide staining-based flow cytometric analysis (reference value: 1.4%); format: functional
ECa-109 cell line [24] = assay: Induction of apoptosis in human EC109 cells assessed as early apoptotic cells at 20 uM after 24 hrs by annexin V-FITC/propidium iodide staining-based flow cytometric analysis (reference value: 3.8%); format: functional
ECa-109 cell line [25] = assay: Induction of apoptosis in human EC109 cells assessed as damaged cells at 10 uM after 24 hrs by annexin V-FITC/propidium iodide staining-based flow cytometric analysis (reference value: 0.1%); format: functional
MCF7 = assay: Cytotoxicity against human MCF7 cells assessed as growth inhibition after 72 hrs by MTT assay; format: functional, cell-based; settings: MCF7, 72 h
[26] = Disruption of mitochondrial membrane potential in human EC109 cells at 5 uM after 24 hrs by JC1 staining-based flow cytometric analysis (reference value: 8.1%); format: functional, ECa-109
[27] = Cell cycle arrest in human EC109 cells assessed as accumulation at G2/M phase at 5 uM after 24 hrs by propidium iodide staining-based flow cytometric analysis (reference value: 6.31%); format: functional; settings: ECa-109
[28] = Cell cycle arrest in human EC109 cells assessed as accumulation at G0/G1 phase at 5 uM after 24 hrs by propidium iodide staining-based flow cytometric analysis (reference value: 51.57%); format: functional; settings: ECa-109
ECa-109 cell line [29] = assay: Induction of apoptosis in human EC109 cells assessed as early apoptotic cells at 2.5 uM after 24 hrs by annexin V-FITC/propidium iodide staining-based flow cytometric analysis (reference value: 3.8%); format: functional
ECa-109 cell line [30] = assay: Induction of apoptosis in human EC109 cells assessed as live cells at 5 uM after 24 hrs by annexin V-FITC/propidium iodide staining-based flow cytometric analysis (reference value: 93.6%); format: functional
[31] = Cell cycle arrest in human EC109 cells assessed as accumulation at G0/G1 phase at 5 uM after 12 hrs by propidium iodide staining-based flow cytometric analysis (reference value: 50.87%); format: functional; settings: ECa-109
ECa-109 cell line [32] = assay: Induction of apoptosis in human EC109 cells assessed as early apoptotic cells at 40 uM after 12 hrs by annexin V-FITC/propidium iodide staining-based flow cytometric analysis (reference value: 6.1%); format: functional

C[C@]12CC[C@H](O)CC1=CC[C@@H]1[C@@H]2CC[C@]2(C)c3nc4ncnn4c(-c4cccc(-c5c6c(nc7ncnn57)[C@@]5(C)CC[C@H]7[C@@H](CC=C8C[C@@H](O)CC[C@@]87C)[C@@H]5C6)c4)c3C[C@@H]12
Activity [1]: 21.6%
Activity (ECa-109 cell line [2]): 1.3%
Activity [3]: 14.8%
IC50 [4]: 83000 nM
Activity (ECa-109 cell line [5]): Dose-dependent effect
Activity (ECa-109 cell line [6]): Active
IC50 [7]: 2360 nM
Activity (ECa-109 cell line [8]): 7.2%
Activity (ECa-109 cell line [9]): Active
Activity (ECa-109 cell line [10]): 72.3%
Activity [11]: 28.5%
Activity (ECa-109 cell line [12]): 23.4%
Activity (ECa-109 cell line [13]): Dose-dependent effect
Activity (ECa-109 cell line [14]): 51.1%
IC50 (PC-3): 3180 nM
Activity (ECa-109 cell line [15]): 34%
Activity [16]: 76.7%
Activity (ECa-109 cell line [17]): 58.9%
Activity (ECa-109 cell line [18]): 12%
IC50 (MGC-803): 130 nM
Activity (ECa-109 cell line [19]): 59.9%
IC50 (SMMC-7721): 1680 nM
Activity [20]: 25.1%
Activity (ECa-109 cell line [21]): Active
Activity [22]: 43.5%
Activity (ECa-109 cell line [23]): 14%
Activity (ECa-109 cell line [24]): 31.5%
Activity (ECa-109 cell line [25]): 2.9%
IC50 (MCF7): 1190 nM
Activity [26]: 40%
Activity [27]: 19.4%
Activity [28]: 47.1%
Activity (ECa-109 cell line [29]): 25%
Activity (ECa-109 cell line [30]): 48.2%
Activity [31]: 52.9%
Activity (ECa-109 cell line [32]): 12.2%
